From US20100003250A1, “(2-ARYL-7H-PYRROLO[2,3-D]PYRIMIDIN-4-YL)MORPHOLINE COMPOUNDS, THEIR USE AS MTOR KINASE AND PI3 KINASE INHIBITORS, AND THEIR SYNTHESES” (Wyeth, priority 2008, published 2010)

Tests used:
Assay type in all cases: biochemical
PI3Kγ = PI3Kγ (Homo sapiens, UniProt P48736); assay: PI3K-gamma fluorescence polarization assay; conditions: 20 μM PIP2, 25 μM ATP; read-out: PI3Kγ Median IC50
Method: PI3K-alpha and PI3K-gamma Fluorescence Polarization Assay Protocols
The reaction buffer was 20 mM HEPES pH 7.5, 2 mM MgCl2, 0.05% CHAPS, and 0.01% βME (added fresh). The substrate solution was 40 μM PIP2 (diC8, Echelon, Salt Lake City Utah cat # P-4508, 1 mM in water) and 50 μM ATP in the reaction buffer. Nunc 384-well black polypropylene fluorescent plates were used for PI3K assays. The assay is run by putting 9.5 μl of freshly diluted enzyme in the reaction buffer per well, adding 0.5 μl of diluted drug or DMSO, and mixing. Then 10 μl of the substrate solution is added to each well to start the reaction. A final concentration of 20 μM PIP2 and 25 μM ATP in the reaction was used. Reactions were allowed to proceed for 30-60 minutes at room temperature. After 30-60 minutes, 20 μl of a solution of 10 nM TAMRA detector (Red detector probe-Echelon) and 2.5 μM of GST-murineGRP (1.5 mg/ml in 17% glycerol) was added per well to stop the reaction. The resulting solution was mixed well and allowed to stand for 90-110 minutes before reading plate. Assay Plates were read on Perkin-Elmer Envision plate readers with appropriate filters for Tamra [BODIPY-TMRI(1,3,4,5)P4]. Data obtained were used to calculate enzymatic activity and enzyme inhibition by inhibitor compounds. It is important to keep Red probe solutions dark. This procedure is adapted from Echelon Biosciences Inc procedure for their PI3-Kinase fluorescence polarization activity Assay kit Product number K-1100.

mTOR Kinase (FLAG-TOR) = target: T1, mTOR Kinase (FLAG-TOR) (Homo sapiens, UniProt P42345); assay: mTOR kinase assay, purified enzyme, DELFIA format; conditions: 100 μM ATP, 1.25 μM His6-S6K; read-out: mTOR Kinase Median IC50
T1 construct: FLAG

PI3Kα = PI3Kα (Homo sapiens, UniProt P42336); assay: PI3K-alpha fluorescence polarization assay; conditions: 20 μM PIP2, 25 μM ATP; read-out: PI3Kα Median IC50
Chain of PI3Kα (P42336 whole entry, species assumed): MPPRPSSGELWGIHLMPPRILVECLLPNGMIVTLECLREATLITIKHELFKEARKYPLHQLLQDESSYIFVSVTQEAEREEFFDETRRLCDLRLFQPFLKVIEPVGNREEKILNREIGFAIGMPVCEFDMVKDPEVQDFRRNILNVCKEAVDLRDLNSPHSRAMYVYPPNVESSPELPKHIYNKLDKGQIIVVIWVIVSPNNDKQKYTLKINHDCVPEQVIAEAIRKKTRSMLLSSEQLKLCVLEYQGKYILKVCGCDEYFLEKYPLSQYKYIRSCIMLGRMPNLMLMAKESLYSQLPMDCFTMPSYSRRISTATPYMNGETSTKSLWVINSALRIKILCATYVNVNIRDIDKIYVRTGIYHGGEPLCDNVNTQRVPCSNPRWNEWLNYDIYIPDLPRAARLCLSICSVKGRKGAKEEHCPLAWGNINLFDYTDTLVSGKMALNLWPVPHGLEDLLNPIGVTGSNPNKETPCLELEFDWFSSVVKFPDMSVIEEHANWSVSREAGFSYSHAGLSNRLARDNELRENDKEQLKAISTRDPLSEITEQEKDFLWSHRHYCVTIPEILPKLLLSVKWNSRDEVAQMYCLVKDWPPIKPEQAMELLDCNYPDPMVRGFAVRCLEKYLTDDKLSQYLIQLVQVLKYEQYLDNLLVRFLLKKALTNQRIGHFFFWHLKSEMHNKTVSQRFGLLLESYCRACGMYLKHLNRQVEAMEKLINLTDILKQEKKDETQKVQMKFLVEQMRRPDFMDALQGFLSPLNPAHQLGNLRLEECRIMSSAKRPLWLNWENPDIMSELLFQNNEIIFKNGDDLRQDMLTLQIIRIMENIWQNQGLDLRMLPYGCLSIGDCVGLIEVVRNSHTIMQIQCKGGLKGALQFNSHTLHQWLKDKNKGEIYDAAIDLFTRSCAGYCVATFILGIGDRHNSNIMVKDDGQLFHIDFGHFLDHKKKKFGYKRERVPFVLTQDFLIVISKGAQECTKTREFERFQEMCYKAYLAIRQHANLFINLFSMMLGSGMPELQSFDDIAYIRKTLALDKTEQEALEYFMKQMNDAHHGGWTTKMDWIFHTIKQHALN
Chain of PI3Kα (P27986 whole entry partner, species assumed): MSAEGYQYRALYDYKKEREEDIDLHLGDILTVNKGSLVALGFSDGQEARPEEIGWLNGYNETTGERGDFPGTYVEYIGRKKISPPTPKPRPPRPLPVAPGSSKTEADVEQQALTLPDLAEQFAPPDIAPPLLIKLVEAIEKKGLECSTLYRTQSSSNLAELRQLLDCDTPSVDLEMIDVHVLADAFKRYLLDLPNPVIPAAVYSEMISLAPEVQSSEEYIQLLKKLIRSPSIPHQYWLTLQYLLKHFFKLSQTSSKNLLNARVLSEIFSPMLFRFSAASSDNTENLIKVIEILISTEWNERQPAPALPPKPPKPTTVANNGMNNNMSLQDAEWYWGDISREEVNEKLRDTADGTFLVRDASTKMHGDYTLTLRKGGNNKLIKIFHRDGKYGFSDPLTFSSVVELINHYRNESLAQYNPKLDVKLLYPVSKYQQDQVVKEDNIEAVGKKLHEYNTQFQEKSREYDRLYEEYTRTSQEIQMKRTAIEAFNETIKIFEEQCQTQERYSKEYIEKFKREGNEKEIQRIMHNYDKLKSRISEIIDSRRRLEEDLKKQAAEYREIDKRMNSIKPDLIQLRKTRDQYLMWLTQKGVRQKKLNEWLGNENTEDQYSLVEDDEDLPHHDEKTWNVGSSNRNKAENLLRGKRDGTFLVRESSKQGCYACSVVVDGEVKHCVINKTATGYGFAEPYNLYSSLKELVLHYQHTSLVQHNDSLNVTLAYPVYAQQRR

Chain of PI3Kγ (P48736 whole entry, species assumed): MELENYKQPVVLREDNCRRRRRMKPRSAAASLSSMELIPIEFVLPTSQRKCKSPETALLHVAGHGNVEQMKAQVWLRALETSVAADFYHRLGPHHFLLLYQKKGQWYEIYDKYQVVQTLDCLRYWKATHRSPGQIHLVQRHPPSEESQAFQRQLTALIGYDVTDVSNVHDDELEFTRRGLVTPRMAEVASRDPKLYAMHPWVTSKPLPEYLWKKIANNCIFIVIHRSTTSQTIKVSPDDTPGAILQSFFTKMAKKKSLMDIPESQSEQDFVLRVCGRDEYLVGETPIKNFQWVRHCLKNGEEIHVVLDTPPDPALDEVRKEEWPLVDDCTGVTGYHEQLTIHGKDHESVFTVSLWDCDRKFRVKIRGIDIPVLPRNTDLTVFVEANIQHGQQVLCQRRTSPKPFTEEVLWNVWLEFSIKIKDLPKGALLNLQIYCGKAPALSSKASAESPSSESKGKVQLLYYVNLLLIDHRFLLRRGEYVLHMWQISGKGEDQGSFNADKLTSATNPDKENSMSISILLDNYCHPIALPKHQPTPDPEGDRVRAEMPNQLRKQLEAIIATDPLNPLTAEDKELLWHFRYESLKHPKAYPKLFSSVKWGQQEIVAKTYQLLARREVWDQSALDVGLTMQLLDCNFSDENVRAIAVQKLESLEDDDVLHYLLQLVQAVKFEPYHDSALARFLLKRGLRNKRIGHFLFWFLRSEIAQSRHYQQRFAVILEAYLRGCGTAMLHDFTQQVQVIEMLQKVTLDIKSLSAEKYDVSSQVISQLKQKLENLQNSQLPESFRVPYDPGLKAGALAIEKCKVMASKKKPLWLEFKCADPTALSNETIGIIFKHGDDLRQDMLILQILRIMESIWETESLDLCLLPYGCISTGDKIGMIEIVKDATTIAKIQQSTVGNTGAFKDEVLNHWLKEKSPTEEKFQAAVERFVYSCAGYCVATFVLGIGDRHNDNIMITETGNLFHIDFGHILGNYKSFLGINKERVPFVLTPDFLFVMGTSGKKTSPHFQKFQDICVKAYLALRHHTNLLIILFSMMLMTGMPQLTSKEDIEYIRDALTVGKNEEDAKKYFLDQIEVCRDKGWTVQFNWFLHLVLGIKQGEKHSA

IC50 (PI3Kγ) | IC50 (mTOR Kinase (FLAG-TOR)) | IC50 (PI3Kα) | SMILES
> 10000 nM | > 3750 nM | 2980 nM | CN(C)CCn1ccc2c(N3CCOCC3)nc(-c3ccc(N)cc3)nc21 [Compound 8, 4-{7-[2-(dimethylamino)ethyl]-4-morpholin-4-yl-7H-pyrrolo[2,3-d]pyrimidin-2-yl}aniline]
72 nM | 0.88 nM | 16 nM | CN(C)CCn1cc(C(=O)Nc2cccnc2)c2c(N3CCOCC3)nc(-c3ccc(NC(=O)Nc4cccnc4)cc3)nc21 [Compound 10, 7-[2-(dimethylamino)ethyl]-4-morpholin-4-yl-N-pyridin-3-yl-2-{4-[(pyridin-3-ylcarbamoyl)amino]phenyl}-7H-pyrrolo[2,3-d]pyrimidine-5-carboxamide]
554 nM | 2150 nM | 78 nM | CN(C)CCNC(=O)Nc1ccc(-c2nc(N3CCOCC3)c3ccn(CCN(C)C)c3n2)cc1 [Compound 14, 1-[2-(dimethylamino)ethyl]-3-(4-{7-[2-(dimethylamino)ethyl]-4-morpholin-4-yl-7H-pyrrolo[2,3-d]pyrimidin-2-yl}phenyl)urea]
4360 nM | 3400 nM | 162 nM | CN(C)CCCNC(=O)Nc1ccc(-c2nc(N3CCOCC3)c3ccn(CCN(C)C)c3n2)cc1 [Compound 15, 1-(4-{7-[2-(dimethylamino)ethyl]-4-morpholin-4-yl-7H-pyrrolo[2,3-d]pyrimidin-2-yl}phenyl)-3-[3-(dimethylamino)propyl]urea]
2180 nM | 102 nM | 1400 nM | CN(C)CCn1ccc2c(N3CCOCC3)nc(-c3ccc(NC(=O)NCCc4c[nH]c5ccccc45)cc3)nc21 [Compound 18, 1-(4-{7-[2-(dimethylamino)ethyl]-4-morpholin-4-yl-7H-pyrrolo[2,3-d]pyrimidin-2-yl}phenyl)-3-[2-(1H-indol-3-yl)ethyl]urea]
868 nM | 435 nM | 99 nM | NC(=O)Nc1cccc(Cn2ccc3c(N4CCOCC4)nc(-c4cccc(CO)c4)nc32)c1 [Compound 19, 1-[3-({2-[3-(hydroxymethyl)phenyl]-4-morpholin-4-yl-7H-pyrrolo[2,3-d]pyrimidin-7-yl}methyl)phenyl]urea]
196 nM | 3.5 nM | 61 nM | NC(=O)Nc1cccc(Cn2ccc3c(N4CCOCC4)nc(-c4ccc(NC(=O)Nc5ccncc5)cc4)nc32)c1 [Compound 20, 1-(4-{7-[3-(carbamoylamino)benzyl]-4-morpholin-4-yl-7H-pyrrolo[2,3-d]pyrimidin-2-yl}phenyl)-3-pyridin-4-ylurea]
418 nM | 33 nM | 41 nM | O=C(Nc1ccncc1)Nc1ccc(-c2nc(N3CCOCC3)c3ccn(CCNc4ccc(F)cc4)c3n2)cc1 [Compound 25, 1-[4-(7-{2-[(4-fluorophenyl)amino]ethyl}-4-morpholin-4-yl-7H-pyrrolo[2,3-d]pyrimidin-2-yl)phenyl]-3-pyridin-4-ylurea]
245 nM | 10.7 nM | 14 nM | O=C(Nc1ccncc1)Nc1ccc(-c2nc(N3CCOCC3)c3ccn(CCNCCc4cnc[nH]4)c3n2)cc1 [Compound 30, 1-{4-[7-(2-{[2-(1H-imidazol-5-yl)ethyl]amino}ethyl)-4-morpholin-4-yl-7H-pyrrolo[2,3-d]pyrimidin-2-yl]phenyl}-3-pyridin-4-ylurea]
404 nM | 25.5 nM | 86 nM | CC(C)(C)NCCn1ccc2c(N3CCOCC3)nc(-c3ccc(NC(=O)Nc4ccncc4)cc3)nc21 [Compound 31, 1-(4-{7-[2-(tert-butylamino)ethyl]-4-morpholin-4-yl-7H-pyrrolo[2,3-d]pyrimidin-2-yl}phenyl)-3-pyridin-4-ylurea]
245 nM | 23 nM | 37 nM | CC(C)NCCn1ccc2c(N3CCOCC3)nc(-c3ccc(NC(=O)Nc4ccncc4)cc3)nc21 [Compound 32, 1-(4-{7-[2-(isopropylamino)ethyl]-4-morpholin-4-yl-7H-pyrrolo[2,3-d]pyrimidin-2-yl}phenyl)-3-pyridin-4-ylurea]
100 nM | 5.3 nM | 12 nM | CNCCn1ccc2c(N3CCOCC3)nc(-c3ccc(NC(=O)Nc4ccncc4)cc3)nc21 [Compound 33, 1-(4-{7-[2-(methylamino)ethyl]-4-morpholin-4-yl-7H-pyrrolo[2,3-d]pyrimidin-2-yl}phenyl)-3-pyridin-4-ylurea]
100 nM | 1.55 nM | 12 nM | O=C(Nc1ccncc1)Nc1ccc(-c2nc(N3CCOCC3)c3ccn(CC4NC(=O)NC4=O)c3n2)cc1 (stereo not drawn) [Compound 35, 1-(4-{7-[(2,5-dioxoimidazolidin-4-yl)methyl]-4-morpholin-4-yl-7H-pyrrolo[2,3-d]pyrimidin-2-yl}phenyl)-3-pyridin-4-ylurea]
97 nM | 1.09 nM | 26 nM | O=C(Nc1ccc(-c2nc(N3CCOCC3)c3ccn(CC(F)(F)F)c3n2)cc1)Nc1cccnc1 [Compound 37, 1-{4-[4-morpholin-4-yl-7-(2,2,2-trifluoroethyl)-7H-pyrrolo[2,3-d]pyrimidin-2-yl]phenyl}-3-pyridin-3-ylurea]
1530 nM | 3.45 nM | 82 nM | O=C(Nc1ccc(F)cc1)Nc1ccc(-c2nc(N3CCOCC3)c3ccn(CC(F)(F)F)c3n2)cc1 [Compound 38, 1-(4-fluorophenyl)-3-{4-[4-morpholin-4-yl-7-(2,2,2-trifluoroethyl)-7H-pyrrolo[2,3-d]pyrimidin-2-yl]phenyl}urea]
41 nM | 1.95 nM | 17 nM | CN1CCN(c2ccc(NC(=O)Nc3ccc(-c4nc(N5CCOCC5)c5ccn(CC(F)(F)F)c5n4)cc3)cc2)CC1 [Compound 39, 1-[4-(4-methylpiperazin-1-yl)phenyl]-3-{4-[4-morpholin-4-yl-7-(2,2,2-trifluoroethyl)-7H-pyrrolo[2,3-d]pyrimidin-2-yl]phenyl}urea]
80 nM | 1.09 nM | 12 nM | O=C(Nc1ccc(CO)cc1)Nc1ccc(-c2nc(N3CCOCC3)c3ccn(CC(F)(F)F)c3n2)cc1 [Compound 40, 1-[4-(hydroxymethyl)phenyl]-3-{4-[4-morpholin-4-yl-7-(2,2,2-trifluoroethyl)-7H-pyrrolo[2,3-d]pyrimidin-2-yl]phenyl}urea]
664 nM | 110 nM | 154 nM | CN(C)CCNC(=O)Nc1ccc(-c2nc(N3CCOCC3)c3ccn(CC(F)(F)F)c3n2)cc1 [Compound 41, 1-[2-(dimethylamino)ethyl]-3-{4-[4-morpholin-4-yl-7-(2,2,2-trifluoroethyl)-7H-pyrrolo[2,3-d]pyrimidin-2-yl]phenyl}urea]
390 nM | 0.94 nM | 110 nM | O=C(NCCO)Nc1ccc(-c2nc(N3CCOCC3)c3ccn(CC(F)(F)F)c3n2)cc1 [Compound 42, 1-(2-hydroxyethyl)-3-{4-[4-morpholin-4-yl-7-(2,2,2-trifluoroethyl)-7H-pyrrolo[2,3-d]pyrimidin-2-yl]phenyl}urea]
1720 nM | 3.9 nM | 570 nM | O=C(Nc1ccc(-c2nc(N3CCOCC3)c3ccn(CC(F)(F)F)c3n2)cc1)OCCO [Compound 43, 2-hydroxyethyl{4-[4-morpholin-4-yl-7-(2,2,2-trifluoroethyl)-7H-pyrrolo[2,3-d]pyrimidin-2-yl]phenyl}carbamate]
144 nM | 1.9 nM | 26 nM | Cn1ccc2c(N3CCOCC3)nc(-c3ccc(NC(=O)Nc4cccnc4)cc3)nc21 [Compound 44, 1-[4-(7-methyl-4-morpholin-4-yl-7H-pyrrolo[2,3-d]pyrimidin-2-yl)phenyl]-3-pyridin-3-ylurea]
506 nM | 36.5 nM | 45 nM | Nc1nc2cc(-c3nc(N4CCOCC4)c4ccn(CC(F)(F)F)c4n3)ccc2[nH]1 [Compound 45, 5-[4-morpholin-4-yl-7-(2,2,2-trifluoroethyl)-7H-pyrrolo[2,3-d]pyrimidin-2-yl]-1H-benzimidazol-2-amine]
104 nM | 3.4 nM | 14 nM | O=C(Nc1cccnc1)Nc1nc2cc(-c3nc(N4CCOCC4)c4ccn(CC(F)(F)F)c4n3)ccc2[nH]1 [Compound 46, 1-{5-[4-morpholin-4-yl-7-(2,2,2-trifluoroethyl)-7H-pyrrolo[2,3-d]pyrimidin-2-yl]-1H-benzimidazol-2-yl}-3-pyridin-3-ylurea]
5230 nM | 300 nM | 1080 nM | O=C(Nc1nc2cc(-c3nc(N4CCOCC4)c4ccn(CC(F)(F)F)c4n3)ccc2[nH]1)c1ccncc1 [Compound 47, N-{5-[4-morpholin-4-yl-7-(2,2,2-trifluoroethyl)-7H-pyrrolo[2,3-d]pyrimidin-2-yl]-1H-benzimidazol-2-yl}isonicotinamide]
